Measured values reported in patent US20060069132A1, “Azolecarboxamide herbicides” (priority 2004, published 2006).

Assays:
goosegrass = assay: Test C pre-/postemergence herbicide test; type: in vivo, Eleusine indica; conditions: preemergence
Outline: (§1)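 Preemergence: seeds planted and treated with compound in non-phytotoxic solvent with surfactant; postemergence: plants at 2 to 18 cm (1- to 4-leaf stage) sprayed likewise. Kept in greenhouse 12 to 14 days, then visually rated against controls, 0 (no effect) to 100 (complete control).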

ducksalad = assay: Test C flooded paddy test; type: in vivo, Heteranthera limosa; conditions: for Plant response rating, Ducksalad: 500 g ai/ha, visual rating after 12 to 14 days
cocklebur = assay: Test C pre-/postemergence herbicide test; type: in vivo, Xanthium strumarium
Outline: as §1

bermudagrass = assay: Test C pre-/postemergence herbicide test; type: in vivo, Cynodon dactylon
Outline: as §1

woolly cupgrass = assay: Test C pre-/postemergence herbicide test; type: in vivo, Eriochloa villosa; conditions: preemergence
Outline: as §1

morningglory = assay: Test C pre-/postemergence herbicide test; type: in vivo, Ipomoea coccinea; set-up: key to Plant response rating, Morningglory: 0 = no effect, 100 = complete control; conditions: preemergence
Outline: as §1

kochia = assay: Test C pre-/postemergence herbicide test; type: in vivo, Kochia scoparia; conditions: preemergence
Outline: as §1

lambsquarters = assay: Test C pre-/postemergence herbicide test; type: in vivo, Chenopodium album; conditions: preemergence
Outline: as §1

[1] = tested on: smallflower umbrella sedge; assay: Test C flooded paddy test; type: in vivo, Cyperus difformis; conditions: for Plant response rating, Sedge, Umbrella: 500 g ai/ha, visual rating after 12 to 14 days
[2] = 125 g ai/ha, scale 0 (no effect) to 100 (complete control), visual, 12 to 14 days
[3] = 500 g ai/ha, scale 0 to 100 (0 no effect, 100 complete control), visual, 12 to 14 days
[4] = 125 g ai/ha, scale 0 to 100 (0 no effect, 100 complete control)
[5] = 250 g ai/ha, scale of 0 to 100, 0 is no effect, 100 is complete control
[6] = scale 0 to 100 (0 no effect, 100 complete control)
[7] = 62 g ai/ha, preemergence, scale 0 to 100
[8] = 125 g ai/ha, scale 0 (no effect) to 100 (complete control), visual, 12 to 14 days, preemergence
[9] = 250 g ai/ha, scale 0-100, preemergence
[10] = Preemergence, 500 g ai/ha, scale 0 to 100, 0 no effect, 100 complete control
[11] = 62 g ai/ha, preemergence, scale 0 to 100, 0 no effect, 100 complete control
[12] = 500 g ai/ha, scale 0 to 100 (0 no effect, 100 complete control), visual, 12 to 14 days, preemergence

CCN1N=C(C(C)(C)C)CC1C(=O)Nc1cc(C(=O)N2CCCC2)ccc1F (racemic) [Compound 309]
Plant response rating, Goosegrass (goosegrass; 62 g ai/ha, scale 0 to 100): 85
Plant response rating, Goosegrass (goosegrass; [2]): 85
Plant response rating, Goosegrass (goosegrass; 250 g ai/ha, scale 0-100): 100
Plant response rating, Goosegrass (goosegrass; [3]): 100
Ducksalad plant response rating (ducksalad; 62 g ai/ha, scale 0 to 100): 85
Ducksalad plant response rating (ducksalad; [4]): 90
Ducksalad plant response rating (ducksalad; [5]): 90
Plant response rating, Ducksalad (ducksalad; [6]): 90
Plant response rating, Cocklebur (cocklebur; [7]): 0
Plant response rating, Cocklebur (cocklebur; [8]): 10
Plant response rating, Cocklebur (cocklebur; [9]): 60
Cocklebur plant response rating (cocklebur; [10]): 60
Plant response rating, Bermudagrass (bermudagrass; [11]): 90
Plant response rating, Bermudagrass (bermudagrass; [8]): 90
Plant response rating, Bermudagrass (bermudagrass; [9]): 95
Bermudagrass plant response rating (bermudagrass; [10]): 100
Plant response rating, Cupgrass, Woolly (woolly cupgrass; 62 g ai/ha, scale 0 to 100): 40
Plant response rating, Cupgrass, Woolly (woolly cupgrass; [2]): 70
Plant response rating, Cupgrass, Woolly (woolly cupgrass; 250 g ai/ha, scale 0-100): 90
Plant response rating, Cupgrass, Woolly (woolly cupgrass; [3]): 100
Plant response rating, Morningglory (morningglory; 62 g ai/ha, scale 0 to 100): 0
Plant response rating, Morningglory (morningglory; [2]): 5
Plant response rating, Morningglory (morningglory; 250 g ai/ha, scale 0-100): 5
Plant response rating, Morningglory (morningglory; [3]): 40
Plant response rating, Kochia (kochia; 62 g ai/ha, scale 0 to 100): 100
Plant response rating, Kochia (kochia; [2]): 100
Plant response rating, Kochia (kochia; 250 g ai/ha, scale 0-100): 100
Plant response rating, Kochia (kochia; [3]): 100
Plant response rating, Lambsquarters (lambsquarters; 62 g ai/ha, scale 0 to 100): 100
Plant response rating, Lambsquarters (lambsquarters; [2]): 100
Plant response rating, Lambsquarters (lambsquarters; 250 g ai/ha, scale 0-100): 100
Plant response rating, Lambsquarters (lambsquarters; [3]): 100
Sedge, Umbrella plant response rating ([1]; 62 g ai/ha, scale 0 to 100): 80
Sedge, Umbrella plant response rating [1, 4]: 80
Sedge, Umbrella plant response rating [1, 5]: 80
Plant response rating, Sedge, Umbrella [1, 6]: 80

CCC1=NN(C(C)(C)C)CC1C(=O)Nc1cc(C(=O)N2CC=CC2)ccc1F (racemic) [Compound 340]
Plant response rating, Goosegrass (goosegrass; 62 g ai/ha, scale 0 to 100): 5
Plant response rating (0 = no effect, 100 = complete control), Goosegrass (goosegrass; 125 g ai/ha): 60
Plant response rating, Goosegrass (goosegrass; 250 g ai/ha, scale 0-100): 85
Plant response rating, Goosegrass (goosegrass; [3]): 90
Ducksalad plant response rating (ducksalad; 62 g ai/ha, scale 0 to 100): 50
Ducksalad plant response rating (ducksalad; [4]): 70
Ducksalad plant response rating (ducksalad; [5]): 70
Plant response rating, Ducksalad (ducksalad; [6]): 90
Plant response rating, Cocklebur (cocklebur; [7]): 0
Plant response rating (0 = no effect, 100 = complete control), Cocklebur (cocklebur; 125 g ai/ha, preemergence): 0
Plant response rating, Cocklebur (cocklebur; [9]): 0
Plant response rating, Cocklebur (cocklebur; [12]): 40
Plant response rating, Bermudagrass (bermudagrass; [11]): 20
Plant response rating (0 = no effect, 100 = complete control), Bermudagrass (bermudagrass; 125 g ai/ha, preemergence): 70
Plant response rating, Bermudagrass (bermudagrass; [9]): 85
Plant response rating, Bermudagrass (bermudagrass; [12]): 100
Plant response rating, Cupgrass, Woolly (woolly cupgrass; 62 g ai/ha, scale 0 to 100): 0
Plant response rating (0 = no effect, 100 = complete control), Cupgrass, Woolly (woolly cupgrass; 125 g ai/ha): 20
Plant response rating, Cupgrass, Woolly (woolly cupgrass; 250 g ai/ha, scale 0-100): 45
Plant response rating, Cupgrass, Woolly (woolly cupgrass; [3]): 75
Plant response rating, Morningglory (morningglory; 62 g ai/ha, scale 0 to 100): 0
Plant response rating (0 = no effect, 100 = complete control), Morningglory (morningglory; 125 g ai/ha): 5
Plant response rating, Morningglory (morningglory; 250 g ai/ha, scale 0-100): 10
Plant response rating, Morningglory (morningglory; [3]): 50
Plant response rating, Kochia (kochia; 62 g ai/ha, scale 0 to 100): 10
Plant response rating (0 = no effect, 100 = complete control), Kochia (kochia; 125 g ai/ha): 20
Plant response rating, Kochia (kochia; 250 g ai/ha, scale 0-100): 90
Plant response rating, Kochia (kochia; [3]): 100
Plant response rating, Lambsquarters (lambsquarters; 62 g ai/ha, scale 0 to 100): 70
Plant response rating (0 = no effect, 100 = complete control), Lambsquarters (lambsquarters; 125 g ai/ha): 80
Plant response rating, Lambsquarters (lambsquarters; 250 g ai/ha, scale 0-100): 100
Plant response rating, Lambsquarters (lambsquarters; [3]): 100
Sedge, Umbrella plant response rating ([1]; 62 g ai/ha, scale 0 to 100): 50
Sedge, Umbrella plant response rating [1, 4]: 70
Sedge, Umbrella plant response rating [1, 5]: 70
Plant response rating, Sedge, Umbrella [1, 6]: 90
